Source: patent publication US10544102B2, “Benzazepine dicarboxamide compounds with secondary amide function” (Hoffmann-La Roche Inc., priority 2017, dated 2020)

Columns and labels:
human TLR8 = molecular target: T1, human TLR8 (Homo sapiens, UniProt Q9NR97); test: HEK-Blue human TLR8 cells NF-κB SEAP reporter assay; format: cell-based; settings: stimulation for 20 hours, Quanti Blue 640 nm
T1 construct: host or cells: HEK-Blue human TLR8 cells (HEK293-derived reporter line)
T1 sequence (Q9NR97 27-1041): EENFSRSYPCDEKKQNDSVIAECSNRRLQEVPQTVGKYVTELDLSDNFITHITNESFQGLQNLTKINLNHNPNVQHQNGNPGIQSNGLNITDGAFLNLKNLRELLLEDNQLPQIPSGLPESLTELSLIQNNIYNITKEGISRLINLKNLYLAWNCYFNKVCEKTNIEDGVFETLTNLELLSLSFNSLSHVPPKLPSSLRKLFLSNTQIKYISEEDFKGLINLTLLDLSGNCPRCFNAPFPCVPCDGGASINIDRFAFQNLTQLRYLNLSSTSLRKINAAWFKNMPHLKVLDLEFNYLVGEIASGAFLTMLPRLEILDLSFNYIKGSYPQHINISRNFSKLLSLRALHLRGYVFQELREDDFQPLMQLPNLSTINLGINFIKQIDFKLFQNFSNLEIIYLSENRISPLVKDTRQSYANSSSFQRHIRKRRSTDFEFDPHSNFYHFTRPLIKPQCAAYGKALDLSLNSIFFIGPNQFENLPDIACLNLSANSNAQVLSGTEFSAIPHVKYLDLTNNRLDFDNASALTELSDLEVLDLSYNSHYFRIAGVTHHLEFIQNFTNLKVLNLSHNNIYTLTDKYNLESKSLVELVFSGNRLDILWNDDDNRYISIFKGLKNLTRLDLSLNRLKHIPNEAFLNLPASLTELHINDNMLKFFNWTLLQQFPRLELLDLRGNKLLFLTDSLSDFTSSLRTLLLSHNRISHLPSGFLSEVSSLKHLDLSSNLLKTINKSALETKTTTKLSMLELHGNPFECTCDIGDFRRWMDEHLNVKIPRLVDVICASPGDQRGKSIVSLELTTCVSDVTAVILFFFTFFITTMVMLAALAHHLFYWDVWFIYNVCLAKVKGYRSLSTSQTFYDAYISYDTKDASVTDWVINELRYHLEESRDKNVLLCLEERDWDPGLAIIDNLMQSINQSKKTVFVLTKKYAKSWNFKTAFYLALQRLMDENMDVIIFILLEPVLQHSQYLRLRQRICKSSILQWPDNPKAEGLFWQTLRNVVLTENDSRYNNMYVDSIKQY
Excerpt: (§1) For TLR8 and TLR7 activity testing, HEK-Blue human TLR8 or TLR7 cells (Invivogen, San Diego, Calif., USA) are used, respectively. These cells are designed for studying the stimulation of human TLR8 or TLR7 by monitoring the activation of NF-κB. A SEAP (secreted embryonic alkaline phosphatase) reporter gene is placed under the control of the IFN-b minimal promoter fused to five NF-κB and AP-1-binding sites. Therefore the reporter expression is regulated by the NF-κB promoter upon stimulation of human TLR8 or TLR7 for 20 hours. The cell culture supernatant SEAP reporter activity was determined using Quanti Blue kit (Invivogen, San Diego, Calif., USA) at a wavelength of 640 nm, a detection medium that turns purple/blue in the presence of alkaline phosphatase. EC50 values were determined using Activity Base analysis (ID Business Solution, Limited).

human TLR7 = molecular target: T2, human TLR7 (Homo sapiens, UniProt Q9NYK1); test: HEK-Blue human TLR7 cells NF-κB SEAP reporter assay; format: cell-based; settings: stimulation for 20 hours, Quanti Blue 640 nm
T2 construct: host or cells: HEK-Blue human TLR7 cells (HEK293-derived reporter line)
T2 sequence (Q9NYK1 27-1049): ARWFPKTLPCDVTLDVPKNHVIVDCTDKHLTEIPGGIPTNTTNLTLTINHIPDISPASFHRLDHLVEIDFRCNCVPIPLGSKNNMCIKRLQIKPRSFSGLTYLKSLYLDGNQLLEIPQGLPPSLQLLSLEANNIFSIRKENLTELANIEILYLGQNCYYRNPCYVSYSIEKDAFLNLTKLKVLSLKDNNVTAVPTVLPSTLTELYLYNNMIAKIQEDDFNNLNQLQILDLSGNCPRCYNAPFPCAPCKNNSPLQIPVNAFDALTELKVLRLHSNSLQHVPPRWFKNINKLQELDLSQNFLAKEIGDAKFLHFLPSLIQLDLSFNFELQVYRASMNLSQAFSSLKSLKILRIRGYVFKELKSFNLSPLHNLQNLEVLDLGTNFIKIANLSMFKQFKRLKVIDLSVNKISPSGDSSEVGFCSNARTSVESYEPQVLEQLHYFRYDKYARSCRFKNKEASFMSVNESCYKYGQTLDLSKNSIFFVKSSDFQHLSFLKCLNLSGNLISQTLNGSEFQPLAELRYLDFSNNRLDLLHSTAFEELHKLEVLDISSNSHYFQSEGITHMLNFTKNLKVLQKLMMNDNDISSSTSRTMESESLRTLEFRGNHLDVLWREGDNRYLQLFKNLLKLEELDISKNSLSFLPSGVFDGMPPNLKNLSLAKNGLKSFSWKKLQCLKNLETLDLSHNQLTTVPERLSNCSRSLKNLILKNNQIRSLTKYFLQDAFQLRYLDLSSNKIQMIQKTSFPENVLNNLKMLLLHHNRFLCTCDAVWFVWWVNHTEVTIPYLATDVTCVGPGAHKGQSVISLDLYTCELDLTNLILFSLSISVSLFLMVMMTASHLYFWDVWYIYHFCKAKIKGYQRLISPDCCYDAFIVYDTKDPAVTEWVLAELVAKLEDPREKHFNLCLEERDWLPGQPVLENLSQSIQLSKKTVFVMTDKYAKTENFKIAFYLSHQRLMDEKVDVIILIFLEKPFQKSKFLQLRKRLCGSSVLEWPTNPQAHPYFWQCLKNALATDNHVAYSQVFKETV
Excerpt: as §1

Row | EC50 (human TLR8) [µM] | EC50 (human TLR7) [µM] | Structure (SMILES)
1 | 0.002 | 7.9 | CCCN(CCC)C(=O)C1=Cc2ccc(C(=O)N[C@H]3C[C@@H]3c3ccccc3)cc2N=C(N)C1 [Example 1, 2-Amino-N8-[(1S,2R)-2-phenylcyclopropyl]-N4,N4-dipropyl-3H-1-benzazepine-4,8-dicarboxamide]
2 | 0.01 | > 100 | CCCN(CCC)C(=O)C1=Cc2ccc(C(=O)NC3CCCN(c4ccccc4)C3)cc2N=C(N)C1 (stereo not shown) [Example 23, 2-Amino-N8-(1-phenyl-3-piperidyl)-N4,N4-dipropyl-3H-1-benzazepine-4,8-dicarboxamide]
3 | 0.01 | 17 | CCCN(CCC)C(=O)C1=Cc2ccc(C(=O)N[C@@H](C)c3ccccc3)cc2N=C(N)C1 [Example 7, 2-Amino-N8-[(1S)-1-phenylethyl]-N4,N4-dipropyl-3H-1-benzazepine-4,8-dicarboxamide]
4 | 0.011 | > 100 | CCCN(CCC)C(=O)C1=Cc2ccc(C(=O)NC(c3ccccc3)c3ccccc3)cc2N=C(N)C1 [Example 10, 2-Amino-N8-benzhydryl-N4,N4-dipropyl-3H-1-benzazepine-4,8-dicarboxamide]
5 | 0.011 | 14 | CCCN(CCC)C(=O)C1=Cc2ccc(C(=O)NC(C)(C)c3ccccc3)cc2N=C(N)C1 [Example 13, 2-Amino-N8-(1-methyl-1-phenyl-ethyl)-N4,N4-dipropyl-3H-1-benzazepine-4,8-dicarboxamide]
